Measurements from patent US4569801A, “Alkylsulfonamidophenylalkylamines” (priority 1984, dated 1986).
Read-outs that look alike come from different tables or passages of the source.

Experiments:
[1] = tested on: normal canine Purkinje fibers; test: Action potential duration of normal canine Purkinje fibers superfused in vitro (standard electrophysiological techniques); assay type: cell-based; conditions: Canis lupus familiaris, 10^-7 M, Ringer's solution at 35° C., driven at 1 Hz, read-out: Percent Increase in Action Potential Duration (at 95% of full repolarization)
Description: The antiarrhythmic activity of the compounds provided by the present invention was determined by the use of standard electrophysiological techniques to measure resting potential, action potential amplitude, duration, rate of rise and effective refractory periods of normal canine Purkinje fibers superfused in vitro with Ringer's solution at 35° C. and driven at a constant frequency of 1 Hz. Table 1 presents the data obtained for a number of compounds of the invention when evaluated in this test. The data presented is the percent increase in the action potential duration at 95% of full repolarization at 10^-7 M.

[2] = tested on: ventricular effective refractory period; test: Ventricular effective refractory period in halothane-anesthetized dogs; assay type: in vivo; conditions: for ED (+30 msec): Canis lupus familiaris; for I.D./I.V. (ratio of intraduodenal to intravenous dose): ratio of doses for +30 msec refractory period
Description: Certain of the compounds of the present invention were tested in halothane-anesthetized dogs in an effort to evaluate the effectiveness of the compounds in increasing the ventricular effective refractory period. Table 2 provides the quantity of specified compound in mg/kg necessary to increase the aforementioned refractory period by 30 msec. when administered either intravenously or intraduadenally. The compounds were tested against clofilium and N-ethyl-N-heptyl-4-nitrobenzenebutanamine, ethanedioic acid for comparative purposes.

[3] = clofilium and similar quaternary ammonium salts; background; cited from earlier work
[4] = intraduodenal, read-out: quantity of compound necessary to increase the ventricular effective refractory period by 30 msec., Intraduodenal
[5] = intravenous, read-out: quantity of compound necessary to increase the ventricular effective refractory period by 30 msec., Intravenous

CCCCCCCN(CC)CCCCc1ccc(NS(C)(=O)=O)cc1 [Example 1, N-[4-[4-(Ethylheptylamino)butyl]phenyl]methanesulfonamide ethanedioate]
activation at 0.1 µM [1]: 31 ± 6% | ED (+30 msec) [2, 4]: 2.2 mg/kg | ED (+30 msec) [2, 5]: 0.29 mg/kg | I.D./I.V. (ratio of intraduodenal to intravenous dose) [2]: 8

CCCCCCCN(CC)C(C)CCCc1ccc(NS(C)(=O)=O)cc1 (centres unmarked) [Example 2, N-[4-[4-(Ethylheptylamino)pentyl]phenyl]methanesulfonamide 2-hydroxy-1,2,3-propanetricarboxylate]
ED (+30 msec) [2, 4]: 8 mg/kg | ED (+30 msec) [2, 5]: 0.27 mg/kg | I.D./I.V. (ratio of intraduodenal to intravenous dose) [2]: 30

CCCCCCCN(CCCC)CCCCc1ccc(NS(C)(=O)=O)cc1 [Example 3, N-[4-[4-(Butylheptylamino)butyl]phenyl]methanesulfonamide ethanedioate]
activation at 0.1 µM [1]: 26 ± 4% | ED (+30 msec) [2, 4]: 2.4 mg/kg | ED (+30 msec) [2, 5]: 0.1 mg/kg | I.D./I.V. (ratio of intraduodenal to intravenous dose) [2]: 24

CCCCCCCN(CCCC)C(C)CCCc1ccc(NS(C)(=O)=O)cc1 (centres unmarked) [Example 4, N-[4-[4-(Butylheptylamino)pentyl]phenyl]methanesulfonamide]
ED (+30 msec) [2, 4]: 4 mg/kg | ED (+30 msec) [2, 5]: 0.25 mg/kg | I.D./I.V. (ratio of intraduodenal to intravenous dose) [2]: 16

CCCCCCCN(CC)CCCCc1cccc(NS(C)(=O)=O)c1 [Example 7, N-[3-[4-(Ethylheptylamino)butyl]phenyl]methanesulfonamide]
activation at 0.1 µM [1]: 20 ± 9%

CCCCCCCN(CC)CCCCc1ccc(NS(=O)(=O)CC)cc1 [Example 8, N-[4-[4-(Ethylheptylamino)butyl]phenyl]ethanesulfonamide]
activation at 0.1 µM [1]: 19 ± 4%

CCCCCCCN(CC)CCCCc1ccc([N+](=O)[O-])cc1.O=C(O)C(=O)O [N-ethyl-N-heptyl-4-nitrobenzenebutanamine, ethanedioic acid, reference compound]
ED (+30 msec) [2, 4]: 1.1 mg/kg | ED (+30 msec) [2, 5]: 0.06 mg/kg | I.D./I.V. (ratio of intraduodenal to intravenous dose) [2]: 18

CCCCCCC[N+](CC)(CC)CCCCc1ccc(Cl)cc1 [clofilium, 4-chloro-N,N-diethyl-N-heptylbenzenebutanaminium phosphate, reference compound]
oral bioavailability [3]: marginal oral bioavailability | ED (+30 msec) [2, 4]: 7 mg/kg | ED (+30 msec) [2, 5]: 0.18 mg/kg | I.D./I.V. (ratio of intraduodenal to intravenous dose) [2]: 39
